Assay results as given in patent publication US20240166651A1, “HETEROCYCLIC DERIVATIVES AS JANUS KINASE INHIBITORS” (CHIESI FARMACEUTICI S.P.A., priority 2021, published 2024).
pIC50: −log10 of the molar value.

How the values were obtained:
JAK1 kinase = JAK1 kinase (Homo sapiens (Human), UniProt P23458); test: Biochemical Potency JAK1 (TR-FRET LANCE Ultra kinase assay); settings: ATP corresponding to Km
Excerpt: The objective of this study was to assess the activity of novel JAK inhibitors measuring the capability of compounds to inhibit JAK1 kinase activity in a biochemical time-resolved fluorescence resonance energy transfer (TR-FRET) LANCE assay. In
LANCE Ultra kinase assay in the presence of JAK1 kinase and ATP (corresponding to Km), the ULight peptide substrate (LANCE Ulight-JAK-1 (Tyr1023) Peptide, Perkin Elmer, TRF0121) was phosphorylated. It was then captured by a Eu-anti-phospho-substrate antibody (LANCE Eu-W1024 Anti-phosphotyrosine (PT66), Perkin Elmer, AD0069), which brought the Eu-chelate donor and ULight acceptor dyes into close proximity. Upon excitation at 320 nm, the Eu-chelate transfers its energy to the ULight dye, resulting in a fluorescent light emission at 665 nm. Inhibitors were tested at 11 consecutive 5-fold dilutions starting from 30 μM (30 μM—3 pM) in duplicate. Calculation of IC50 data, curves and QC analysis were made using Excel tools and GraphPadPrism software. QC criteria parameters: Z′≥0.5, Hill Slope range 0.5 to 5, S:B>2.

[1] = system: IL-2 induced phosphorylation of STAT5 (JAK1/JAK3 activity) in human PBMCs; test: Cell Based assay PBMC (IL-2 stimulated pSTAT5); settings: 0.5 h, rh IL-2, 30 min incubation, pSTAT5 ELISA, data displayed as pIC50
Description: In addition to enzymatic potency, the effects of the inhibitors against JAK1/JAK3 activity in a cellular assay was characterized against IL-2 induced phosphorylation of STATS level in human peripheral blood mononuclear cells (PBMCs).
PBMC have been isolated from human healthy volunteers. Cells were seeded in wells and treated with compounds and rh IL-2. After 30 min incubation cells were lysed and pSTAT5 determined by PathScan phospho-stats (Tyr694) ELISA (Cell signaling). Inhibitors were tested at 11 consecutive 5-fold dilutions starting from 30 μM (30 μM—3 pM) in duplicate. Calculation of IC50 data, curves and QC analysis were made using
Excel tools and GraphPadPrism software. QC criteria parameters: Z′≥0.35, Hill Slope range 0.5 to 5, S:B >2.

JAK1 kinase, sequence (P23458 whole entry): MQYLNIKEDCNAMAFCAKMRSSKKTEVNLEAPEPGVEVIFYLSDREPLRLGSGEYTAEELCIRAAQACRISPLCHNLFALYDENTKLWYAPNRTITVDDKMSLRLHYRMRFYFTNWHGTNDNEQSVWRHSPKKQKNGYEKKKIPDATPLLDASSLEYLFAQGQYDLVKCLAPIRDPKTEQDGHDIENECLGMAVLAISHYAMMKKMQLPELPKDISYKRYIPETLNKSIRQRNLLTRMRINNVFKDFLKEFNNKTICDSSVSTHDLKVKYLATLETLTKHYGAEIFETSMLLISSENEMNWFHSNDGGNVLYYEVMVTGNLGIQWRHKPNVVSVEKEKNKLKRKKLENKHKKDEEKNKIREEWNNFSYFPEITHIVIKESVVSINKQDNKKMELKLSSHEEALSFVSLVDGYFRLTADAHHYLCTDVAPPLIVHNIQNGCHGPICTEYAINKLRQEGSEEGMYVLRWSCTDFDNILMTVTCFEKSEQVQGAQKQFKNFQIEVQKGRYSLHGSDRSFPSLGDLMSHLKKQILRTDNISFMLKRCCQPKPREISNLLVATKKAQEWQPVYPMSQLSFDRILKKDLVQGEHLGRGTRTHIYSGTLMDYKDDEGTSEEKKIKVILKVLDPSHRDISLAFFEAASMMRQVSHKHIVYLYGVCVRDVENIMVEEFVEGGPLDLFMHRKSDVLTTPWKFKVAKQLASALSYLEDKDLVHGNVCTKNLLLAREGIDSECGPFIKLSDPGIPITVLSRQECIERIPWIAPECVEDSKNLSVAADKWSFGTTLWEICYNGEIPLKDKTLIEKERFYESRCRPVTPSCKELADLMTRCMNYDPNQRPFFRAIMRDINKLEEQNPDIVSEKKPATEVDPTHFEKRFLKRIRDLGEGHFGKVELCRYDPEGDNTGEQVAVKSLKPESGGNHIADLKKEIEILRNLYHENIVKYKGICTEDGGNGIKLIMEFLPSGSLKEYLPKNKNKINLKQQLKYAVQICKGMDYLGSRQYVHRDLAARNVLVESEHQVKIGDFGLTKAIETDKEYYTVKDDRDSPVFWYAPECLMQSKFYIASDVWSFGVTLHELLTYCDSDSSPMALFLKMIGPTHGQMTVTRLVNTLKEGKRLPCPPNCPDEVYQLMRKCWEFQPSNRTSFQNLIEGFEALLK

SMILES | Biochemical Potency JAK 1 (pIC50) (JAK1 kinase) | pIC50 [1]
CN(c1ncnc2[nH]ccc12)[C@@H]1CCN(c2ccc(C#N)c(F)c2)C1 [Example 1, (R)-2-fluoro-4-(3-(methyl(7H-pyrrolo[2,3-d]pyrimidin-4-yl)amino)pyrrolidin-1-yl)benzonitrile] | 8.6 | 7.30
CN(c1ncnc2[nH]ccc12)C1CCN(c2ccc(C#N)nc2)C1 (stereo not drawn) [Example 2, 5-(3-(methyl(7H-pyrrolo[2,3-d]pyrimidin-4-yl)amino)pyrrolidin-1-yl)picolinonitrile] | 7.9 | 6.60
CN(c1ncnc2[nH]ccc12)[C@@H]1CCN(c2ccc(C(=O)Nc3nccs3)cn2)C1 [Example 3, (R)-6-(3-(methyl(7H-pyrrolo[2,3-d]pyrimidin-4-yl)amino)pyrrolidin-1-yl)-N-(thiazol-2-yl)nicotinamide] | 7.7 | 6.30
N#Cc1ccc(N2CCC(Nc3c(C(N)=O)cnc4ccsc34)C2)cc1F (stereo not drawn) [Example 4, 7-((1-(4-cyano-3-fluorophenyl)pyrrolidin-3-yl)amino)thieno[3,2-b]pyridine-6-carboxamide] | 7 | 5.50
COC(=O)C(c1ccc(Cl)cc1F)N1CCC(N(C)c2ncnc3[nH]ccc23)C1 (stereo not drawn) [Example 5, methyl 2-(4-chloro-2-fluorophenyl)-2-(3-(methyl(7H-pyrrolo[2,3-d]pyrimidin-4-yl)amino)pyrrolidin-1-yl)acetate] | 7.6 | –
CN(c1ncnc2[nH]ccc12)C1CCN(C(C(=O)O)c2ccc(Cl)cc2F)C1 (stereo not drawn) [Example 6, 2-(4-chloro-2-fluorophenyl)-2-(3-(methyl(7H-pyrrolo[2,3-d]pyrimidin-4-yl)amino)pyrrolidin-1-yl)acetic acid] | 5.3 | –
CCOC(=O)c1cnc2ccsc2c1NC1CCN(c2ccc(C#N)c(F)c2)C1 (stereo not drawn) [Example 7, ethyl 7-((1-(4-cyano-3-fluorophenyl)pyrrolidin-3-yl)amino)thieno[3,2-b]pyridine-6-carboxylate] | 6 | 5.60
N#Cc1ccc(N2CCC(Nc3c(C(=O)O)cnc4ccsc34)C2)cc1F (stereo not drawn) [Example 8, 7-((1-(4-cyano-3-fluorophenyl)pyrrolidin-3-yl)amino)thieno[3,2-b]pyridine-6-carboxylic acid] | 5.3 | 4.50
CN(c1ncnc2[nH]ccc12)[C@@H]1CCN(c2cc(F)ccc2C#N)C1 [Example 9, (R)-4-fluoro-2-(3-(methyl(7H-pyrrolo[2,3-d]pyrimidin-4-yl)amino)pyrrolidin-1-yl)benzonitrile] | 7.6 | 6.40
CN(c1ncnc2[nH]ccc12)[C@@H]1CCN(c2cnc(C#N)nc2)C1 [Example 10, (R)-5-(3-(methyl(7H-pyrrolo[2,3-d]pyrimidin-4-yl)amino)pyrrolidin-1-yl)pyrimidine-2-carbonitrile] | 7.9 | 6.70
